Measured values: patent US7078566B2, “Salts of guanidine derivatives and pharmaceutical preparations consisting thereof” (Biosphinks Aktiengesellschaft, priority 2001, dated 2006)

Experiments:
[1] = Solubility of C11AG salts in potassium phosphate buffer (crystal formation by microscope); conditions: for Crystals: pH 7.4, 4 mM C11AG salt
[2] = target: neutral sphingomyelinase from Bacillus cereus (Bacillus cereus, UniProt P11889); test: biochemical; conditions: pH 7.2, 37° C., 24 h
Description: Paranitrophenylphosphoryl-choline was dissolved to a final concentration of 1 mg/ml in 0.1 M Tris at pH 7.2 and 10 mM […]. […] The optical density is a measure for the quantity of cleaved substrate. Dose-effect curves were used to determine the concentration at which the enzyme activity is inhibited by 50% (IC50).

[3] = Solubility of C11AG salts in water
[4] = test system: nude mice (strain: Swiss, Nu/Nu); test: Physiological tolerability after subcutaneous application (tissue damage after 24 h)
Description: Aliquots of 0.1 ml each were administered to 3 nude mice (strain: Swiss, Nu/Nu) by subcutaneous application. After 24 h, the degree of tissue damage was recorded. The results are shown in Table 4, in which no visible damage=−, reddening=+, edemas=++, and necroses=+++.

[5] = test system: DSS induced colitis; test: DSS induced colitis, body weight loss; format: in vivo, mice (strain Balb C); conditions: in food equimolar to 0.5 mg C11AG/g
Text: (§1) Female mice (strain Balb C, 9 weeks old) were obtained from Charles River and were kept under specific pathogen free conditions under an artificial day/night rhythm. Animals were fed with Altromin standard diet and received water ad libitum. Colitis was induced by addition of dextran sulfate (DSS) (MW 36,000–50,000, ICN, Aurora, Ohio, lot 2387F) to drinking water at a concentration of 7.5%. For C11AG treatment the free base of C11AG (lot 2-3-3) was used. Animals received Altromin powder food, mixed with 0.5 mg C11AG/g or with equimolar concentration of C11AG salt (i.e. 0.785 mg/g C11AG hexanate). As determined in calibration experiments Balb C mice (8–12 weeks old) consume each day 150 g food/kg body weight. The corresponding daily doses of C11AG were therefore: 75 and […]. Body weight loss is one of the most evident symptoms of DSS induced colitis. Mean body weight was determined every day for each group and the weight loss was calculated.
as §1, with “libitum.Colitis” for “libitum. Colitis”, “Animals received Altromin powder food, mixed with 0.5 mg C11AG/g or with equimolar concentration of C11AG salt (i.e. 0.785 mg/g C11AG hexanate).” left out, “calculated. Mean weight loss was added over a period of eleven days.” for “calculated.”

[6] = paranitrophenylphosphoryl-choline substrate
[7] = IC50, paranitrophenylphosphoryl-choline substrate
[8] = Example 10, mean weight loss added over eleven days, FIG. 3

Chain of neutral sphingomyelinase from Bacillus cereus (P11889 28-333): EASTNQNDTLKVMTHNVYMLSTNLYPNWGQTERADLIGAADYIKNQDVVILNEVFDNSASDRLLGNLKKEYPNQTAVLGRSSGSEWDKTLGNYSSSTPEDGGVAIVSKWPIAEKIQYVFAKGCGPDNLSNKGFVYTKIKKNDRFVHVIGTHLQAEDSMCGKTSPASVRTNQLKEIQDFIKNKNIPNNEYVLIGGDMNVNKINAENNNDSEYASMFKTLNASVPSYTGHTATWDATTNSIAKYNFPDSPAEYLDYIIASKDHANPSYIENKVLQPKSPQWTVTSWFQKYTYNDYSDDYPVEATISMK

Compound: CC(=O)O.CCCCCCCCCCC=NNC(=N)N [Acetate, undecylideneaminoguanidine acetate]
- Crystals ([1]; phosphate 1 mM): no
- Crystals ([1]; phosphate 10 mM–1,000 mM): yes
- phosphate concentration at which the salt precipitates (forms insoluble phosphates) ([1]; potassium phosphate buffer pH 7.4, 4 mM C11AG salt): 10 mM
- IC50 [2, 6]: 0.85 µg/mL
- Solubility in water [3]: >10000 µg/mL
- concentration up to which well-tolerated / no damage ([4]; 0.1 ml subcutaneous, nude mice, after 24 h): 20000 µM

Compound: CCCCCCCCCCC=NNC(=N)N [Chloride, reference compound]
- Crystals ([1]; phosphate 1 mM–1,000 mM): yes
- IC50 [2, 7]: 3.53 µM
- solubility ([3]; water): > 10000 µg/mL
- lowest concentration leading to reddening and edemas ([4]; Swiss Nu/Nu (nude), mouse, in vivo, sc, 24 h): 20 mM

Compound: CC(O)C(=O)O.CCCCCCCCCCC=NNC(=N)N [Lactate, undecylideneaminoguanidine lactate]
- Crystals ([1]; phosphate 1 mM): no
- Crystals ([1]; phosphate 10 mM–1,000 mM): yes
- IC50 [2, 6]: 0.9 µg/mL

Compound: CCCCCCCCCCC=NNC(=N)N [Oenanthate, undecylideneaminoguanidine oenanthate]
- Crystals ([1]; phosphate 1 mM–1,000 mM): no
- IC50 [2, 7]: 3.31 µM
- Solubility in water [3]: >10000 µg/mL

Compound: Dodecylphosphonate
- Solubility in water [3]: 100 µg/mL

Compound: Undecylenate
- Solubility in water [3]: 100 µg/mL

Compound: undecylideneaminoguanidine decanoate [Decanate]
- Protection from DSS induced weight loss as compared to the free base [5, 8]: more pronounced

Compound: undecylideneaminoguanidine hexanoate [hexanoic acid salt of C11AG]
- Protection from DSS induced weight loss as compared to the free base ([5]; Example 9, mean weight loss per day, FIG. 2): more pronounced
- Protection from DSS induced weight loss as compared to the free base [5, 8]: more pronounced

Compound: undecylideneaminoguanidine octanoate [octanoic acid salt of C11AG]
- Protection from DSS induced weight loss as compared to the free base [5, 8]: more pronounced

Compound: undecylideneaminoguanidine pelargonate
- Crystals ([1]; phosphate 1 mM–1,000 mM): no
- IC50 [2, 6]: 0.95 µg/mL
- Solubility in water [3]: >10000 µg/mL
